Assay results reported in publication PMC11270923 (BMC Chemistry, 2024).

Test: Thermodynamic dissolution properties from Van't Hoff and Gibbs equations
Format: physicochemical
Description: The Gibbs and […] equations were used to determine the thermodynamic parameters of dissolution. A mean harmonic temperature of 305.55 K was utilized for the calculations, which were based on a temperature range of 298.15 K to 313.15 K [35]. […] On the other hand, ΔHsolno can be calculated by plotting lnx1 versus 1/T-1/Thm which is called van’t Hoff plot:16 ΔHsolno=-R(∂lnx1/∂(1/T-1/Thm))P 17 ΔGsolno=-RThm×intercept
By solving Eqs. 16 and 17, we can determine the values of the parameters ΔHsolno and ΔGsolno . The standard molar entropy of dissolution, ΔSsolno , can then be calculated using the following equation [40–42]:18 ΔSsolno=ΔHsolno-ΔGsolno/Thm
The relative contributions of entropy and enthalpy to the standard molar Gibbs free energy of dissolution of ACP are explained by Eqs. 17, 18, as shown by the symbols ξH and ξTS , respectively:19 %ξH=ΔHsolno/ΔHsolno+TΔSsolno×100 20 %ξTS=TΔSsolno/ΔHsolno+TΔSsolno×100

[1] = water+[DEA]La w3=0.0000, mean temperature 305.55 K
[2] = water+[DEA]La w3=0.0200, mean temperature 305.55 K
[3] = water+[DEA]La w3=0.0500, mean temperature 305.55 K
[4] = water+[DEA]La w3=0.0700, mean temperature 305.55 K
[5] = water+[DEA]La w3=0.1000, mean temperature 305.55 K
[6] = water+[DEA]La w3=0.1500, mean temperature 305.55 K
[7] = water+[DEA]La w3=0.2000, mean temperature 305.55 K
[8] = water+[MEA]La w3=0.0000, mean temperature 305.55 K
[9] = water+[MEA]La w3=0.0200, mean temperature 305.55 K
[10] = water+[MEA]La w3=0.0500, mean temperature 305.55 K
[11] = water+[MEA]La w3=0.0700, mean temperature 305.55 K
[12] = water+[MEA]La w3=0.1000, mean temperature 305.55 K
[13] = water+[MEA]La w3=0.1500, mean temperature 305.55 K
[14] = water+[MEA]La w3=0.2000, mean temperature 305.55 K
[15] = water+[TEA]La w3=0.0000, mean temperature 305.55 K
[16] = water+[TEA]La w3=0.0200, mean temperature 305.55 K
[17] = water+[TEA]La w3=0.0500, mean temperature 305.55 K
[18] = water+[TEA]La w3=0.0700, mean temperature 305.55 K
[19] = water+[TEA]La w3=0.1000, mean temperature 305.55 K
[20] = water+[TEA]La w3=0.1500, mean temperature 305.55 K
[21] = water+[TEA]La w3=0.2000, mean temperature 305.55 K

CC(=O)Nc1ccc(O)cc1 [ACP, Acetaminophen]
TMΔHsoln∘ [1]: 2.289 kcal/mol | ΔGsoln∘ [1]: 3.6702 kcal/mol | ΔHsoln∘ [1]: 5.9591 kcal/mol | ξH [1]: 72.250% | ξTS [1]: 27.750% | TMΔHsoln∘ [2]: 1.438 kcal/mol | ΔGsoln∘ [2]: 3.489 kcal/mol | ΔHsoln∘ [2]: 4.9264 kcal/mol | ξH [2]: 77.411% | ξTS [2]: 22.589% | TMΔHsoln∘ [3]: 0.108 kcal/mol | ΔGsoln∘ [3]: 3.3989 kcal/mol | ΔHsoln∘ [3]: 3.5065 kcal/mol | ξH [3]: 97.024% | ξTS [3]: 2.976% | ΔGsoln∘ [4]: 3.3511 kcal/mol | ΔHsoln∘ [4]: 3.1637 kcal/mol | ξH [4]: 94.407% | ξTS [4]: 5.593% | TMΔHsoln∘ [5]: 0.679 kcal/mol | ΔGsoln∘ [5]: 3.2808 kcal/mol | ΔHsoln∘ [5]: 3.9601 kcal/mol | ξH [5]: 85.361% | ξTS [5]: 14.639% | TMΔHsoln∘ [6]: 0.123 kcal/mol | ΔGsoln∘ [6]: 3.2333 kcal/mol | ΔHsoln∘ [6]: 3.3559 kcal/mol | ξH [6]: 96.472% | ξTS [6]: 3.528% | TMΔHsoln∘ [7]: 0.3011 kcal/mol | ΔGsoln∘ [7]: 3.1683 kcal/mol | ΔHsoln∘ [7]: 3.4692 kcal/mol | ξH [7]: 92.015% | ξTS [7]: 7.985% | TMΔHsoln∘ [8]: 2.289 kcal/mol | ΔGsoln∘ [8]: 3.6702 kcal/mol | ΔHsoln∘ [8]: 5.9591 kcal/mol | ξH [8]: 72.250% | ξTS [8]: 27.750% | TMΔHsoln∘ [9]: 1.168 kcal/mol | ΔGsoln∘ [9]: 3.4405 kcal/mol | ΔHsoln∘ [9]: 4.609 kcal/mol | ξH [9]: 79.777% | ξTS [9]: 20.223% | ΔGsoln∘ [10]: 3.3752 kcal/mol | ΔHsoln∘ [10]: 3.3439 kcal/mol | ξH [10]: 99.076% | ξTS [10]: 0.924% | ΔGsoln∘ [11]: 3.2777 kcal/mol | ΔHsoln∘ [11]: 2.9484 kcal/mol | ξH [11]: 89.953% | ξTS [11]: 10.047% | ΔGsoln∘ [12]: 3.2139 kcal/mol | ΔHsoln∘ [12]: 3.1785 kcal/mol | ξH [12]: 98.898% | ξTS [12]: 1.102% | TMΔHsoln∘ [13]: 0.4615 kcal/mol | ΔGsoln∘ [13]: 3.1248 kcal/mol | ΔHsoln∘ [13]: 3.5863 kcal/mol | ξH [13]: 88.600% | ξTS [13]: 11.400% | TMΔHsoln∘ [14]: 0.2928 kcal/mol | ΔGsoln∘ [14]: 3.0667 kcal/mol | ΔHsoln∘ [14]: 3.3595 kcal/mol | ξH [14]: 91.982% | ξTS [14]: 8.018% | TMΔHsoln∘ [15]: 2.289 kcal/mol | ΔGsoln∘ [15]: 3.6702 kcal/mol | ΔHsoln∘ [15]: 5.9591 kcal/mol | ξH [15]: 72.250% | ξTS [15]: 27.750% | TMΔHsoln∘ [16]: 1.658 kcal/mol | ΔGsoln∘ [16]: 3.5837 kcal/mol | ΔHsoln∘ [16]: 5.2416 kcal/mol | ξH [16]: 75.970% | ξTS [16]: 24.030% | TMΔHsoln∘ [17]: 0.196 kcal/mol | ΔGsoln∘ [17]: 3.5172 kcal/mol | ΔHsoln∘ [17]: 3.713 kcal/mol | ξH [17]: 94.992% | ξTS [17]: 5.008% | TMΔHsoln∘ [18]: 0.0473 kcal/mol | ΔGsoln∘ [18]: 3.4422 kcal/mol | ΔHsoln∘ [18]: 3.4895 kcal/mol | ξH [18]: 98.659% | ξTS [18]: 1.341% | TMΔHsoln∘ [19]: 0.7775 kcal/mol | ΔGsoln∘ [19]: 3.3774 kcal/mol | ΔHsoln∘ [19]: 4.1549 kcal/mol | ξH [19]: 84.235% | ξTS [19]: 15.765% | TMΔHsoln∘ [20]: 0.3346 kcal/mol | ΔGsoln∘ [20]: 3.2775 kcal/mol | ΔHsoln∘ [20]: 3.6121 kcal/mol | ξH [20]: 91.522% | ξTS [20]: 8.478% | TMΔHsoln∘ [21]: 0.4285 kcal/mol | ΔGsoln∘ [21]: 3.2144 kcal/mol | ΔHsoln∘ [21]: 3.6429 kcal/mol | ξH [21]: 89.476% | ξTS [21]: 10.524%
